Structures can show the parent of a compound that is named as a salt. Each block holds one molecule with its values, some of them ahead of it.
What was measured:
physchem = settings: 37 °C, water
[1] = In vitro drug permeation from Tecophilic film pouches loaded with a gemcitabine tablet (Example 1); assay type: physicochemical; settings: DI water at 37° C.
Experimental: Pouches formed of Tecophilic™ film and loaded with gemcitabine (GEM) were tested in vitro for drug permeation. The effect of gamma irradiation on these pouches was also studied. The pouches were made of HP-93A-100 and HP-60D-60 films with thickness of 0.5 mm (films provided by Lubrizol) (http://www.lubrizol.com/Medical/Products/Tecophilic.html). These thermoplastic polyurethanes (TPUs) were selected for their biocompatibility and ability to absorb equilibrium water content up to 100% of the weight of dry resin, as well as other properties. The material properties of the film materials used are given below in Table 1. Each pouch was made out of 2 films which were heat-sealed at all four edges of each pouch after loading each pouch with a single tablet of gemcitabine HCl or base formulated as follows: (1) Gemcitabine HCl: 89% GEM HCl, 10% Isomalt, 1% Lubritab (water insoluble), or […] Some of the pouches were gamma irradiated (25 kGy). The pouches were then placed into 21 mL DI water at 37° C. Thereafter, at each time point, 5× inversion, 1 mL sample was taken out followed by a 1 mL DI water refill.

[2] = Approximate solubility of drugs in water
[3] = In vitro release from Tecophilic film pouches loaded with gemcitabine HCl and urea tablets (Example 1A); assay type: physicochemical; settings: pouches with 1 gemcitabine HCl tablet and 4 urea tablets, DI water at 37° C.
Experimental: Pouches constructed as in Example 1 were made, except each was loaded with 1 gemcitabine (GEM) HCl tablet and 4 tablets of urea. The pouches were then placed into 21 mL DI water at 37° C. Thereafter, at each time point, 5× inversion, 1 mL sample was taken out followed by a 1 mL DI water refill.

[4] = In vitro gemcitabine release from one-module and four-module devices with end wall disks (Example 5); assay type: physicochemical; settings: one module device, jar rotated at 4 rpm or not
Experimental: There were three experimental groups tested: 1) one module device with the releasing jar being rotated in the rotator at 4 rpm ('Rotator'), 2) one module device without the jar rotated ('Static'), and 3) four module device without the jar rotated ('Static'). Each module is comprised of silicone tube made of MED-4750 (Nusil) with the dimensions of 2.64 mm ID and 0.20 mm wall thickness. Multiple gemcitabine HCl tablets with 2.6 mm OD were loaded into the silicone tube with each module having a total gemcitabine HCl payload of approximately 190 mg. The tablet formulation was 90% gemcitabine HCl, 5% PVP, 2.5% Neusilin, and 2.5% magnesium stearate. […] Thermoplastic Polyurethanes) at each end of the tablet drug core. The dimensions of each disk were approximately 0.5 mm thickness and 3.0 mm OD. The OD (3.0 mm) of the disks was larger than the silicone tube ID (2.64 mm), and so the disks were frictionally fit in the silicone tube. Each module has a silicone outer washer, made of MED-4780 (Nusil), located next to each disk with silicone adhesive (MED3-4213) applied around the washer, to stabilize the outward migration of the disk. […] In addition, each module has a polyimide inner washer with 2.67 mm ID, 0.064 mm wall, and approximately 4 mm length. The inner washer was filled with a tablet so that the disk was initially in contact with the tablet. […]

SMILES: Nc1ccn([C@@H]2O[C@H](CO)[C@@H](O)C2(F)F)c(=O)n1 [gemcitabine HCl]
- solubility (physchem): ~80 mg/mL
- relative speed of release from pouches ([1]; comparison of film grades and of drug forms): released faster than gemcitabine base

SMILES: Nc1ccn([C@@H]2O[C@H](CO)[C@@H](O)C2(F)F)c(=O)n1 [gemcitabine base]
- approximate solubility ([2]; water at 37° C.): ~15 mg/mL

SMILES: Nc1ccn([C@@H]2O[C@H](CO)[C@@H](O)C2(F)F)c(=O)n1 [gemcitabine]
- permeation through 0.5 mm Tecophilic film [3]: permeated 0.5 mm Tecophilic™ film in one day
- gemcitabine release rate, Static vs Rotator [4]: no significant difference
- permeation through 0.5 mm Tecophilic film ([1]; HP-93A-100 and HP-60D-60 pouches): permeated 0.5 mm Tecophilic™ film

- solubility (physchem): ~12 mg/mL
SMILES: Cc1ccc(O)c([C@H](CCN(C(C)C)C(C)C)c2ccccc2)c1 [tolterodine tartrate]

SMILES: O=C(O[C@H]1C[C@H]2CC[C@@H](C1)[N+]21CCCC1)C(O)(c1ccccc1)c1ccccc1 [trospium chloride]
- solubility ([2]; 37 °C, water): ~500 mg/mL

SMILES: NC(N)=O [urea]
- permeation through 0.5 mm Tecophilic film [3]: permeated 0.5 mm Tecophilic™ film in one day

Reference: patent US12409304B2, “Drug delivery devices with drug-permeable component and methods” (TARIS Biomedical LLC, priority 2013, dated 2025)
